Experimental findings from PubChem BioAssay (NCI) are described below.

“And” between values parts separate entries of the source, which are not always exact repeats. Equal values may be shown once.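 Following 48 hours of exposure in 96-well plates, responses at five concentrations were used to interpolate endpoints linearly. Abbreviation: GI50, concentration required for 50% inhibition of growth. TGI: concentration producing complete growth inhibition.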 Where only a bound is given, the exact number is not on record here.

What all share (test): NCI tumour cell line growth inhibition, 48 h
In assay [1] the test system is ACHN renal.
Assay [2] relates to EKVX NSCLC.
In assay [3] the test system is HOP-62 NSCLC.
The subject of assay [4] is HT29 colon.
Assay [5] concerns MOLT-4 leukemia.
Assay [6] concerns NCI-H23 lung.
Assay [7] concerns NCI-H460 lung.
The subject of assay [8] is OVCAR-8 ovarian.
Assay [9] concerns SK-MEL-2 melanoma.

As to `CC12CCC(O)CC1CCC1C2CCC2(C)C(C3=CC(=O)OC3)CCC12O` (stereo not given), the TGI is 10.3 µM in assay [1]; 5.88 µM in assay [2]; 6.01 µM in [3]; 13.6 µM in [4]; > 100 µM in [5]; 4.76 µM in [6]. Further, the values for the TGI in assay [7], in assay [8] and in assay [9] were 3.99 µM, 10.1 µM and 22.7 µM, respectively.
With `CCCCCN(CCCCC)CC(O)c1cc(C)c2ccc3cc(C(C)C)ccc3c2c1` (stereo not given), the GI50 was 1.6 µM in assay [1]; 1.76 µM in [2]; 2.12 µM in assay [3]; 2.21 µM in [5]; 1.77 µM in assay [6]; 1.97 µM in assay [7]. The GI50 in [8] is 2.55 µM; in assay [9], 2.2 µM. The TGI in assay [1] is 3.05 µM; in assay [2] it was 3.34 µM; in [3] it was 5.7 µM; in assay [5], 4.72 µM; in assay [6], 3.4 µM; in [7], 4.05 µM. The TGI worked out at 6.46 µM in [8] and 4.83 µM in assay [9].
As to `O=C(Nc1ccc(Cl)c(Cl)c1)Nc1ccc(Cl)c(Cl)c1`, the GI50 in assay [1] was 2.34 µM and 3.28 µM; in assay [2] it was 2.36 µM; in assay [3] it was 3.02 µM and 5.73 µM; in assay [4], 3.27 µM and 2.43 µM; in assay [5], 2.64 µM and 2.31 µM; in assay [6], 2.63 µM and 2.4 µM. Moreover, the GI50 is 2.85 µM and 2.24 µM in assay [7]; 3.12 µM and 2.54 µM in assay [8]; 2.15 µM in [9]. Moreover, the TGI in [1] is 6.49 µM and 10.5 µM; in assay [2] it was 11.1 µM; in [3] it was 11.4 µM and 31.2 µM; in [4] it was 12.9 µM and 6.82 µM; in assay [5] it was 10.2 µM and 6.6 µM; in [6] it was 10.2 µM and 11.4 µM. Further, the TGI in [7] is 10.6 µM and 8.59 µM; in [8] it was 14.1 µM and 9.83 µM; in [9] it was 5.49 µM and 4.09 µM.
`O=C(Nc1ccccc1OC(F)(F)F)Nc1n[nH]c2ccccc12`: the GI50 in [1] was 31.1 µM; in [2], 48.2 µM; in assay [3], 19.6 µM; in assay [4], 26.1 µM; in [5], 5.91 µM; in assay [6], 50 µM. Further, the GI50 was 15 µM in assay [7], 29.6 µM in [8] and 81.4 µM in assay [9]. Besides, the TGI was > 100 µM in assay [1]; > 100 µM in assay [2]; 73.4 µM in assay [3]; > 100 µM in assay [4]; > 100 µM in [5]; > 100 µM in assay [6]. Also, the TGI in assay [7], in [8] and in [9] was > 100 µM each time.
Turning to `O=S1(=O)c2ccccc2NC(c2ccc3ccccc3c2)CC1c1ccccc1F` (stereo not given), the TGI in assay [1], in assay [2], in assay [3], in assay [4], in [5] and in [6] was > 100 µM throughout. Besides, the TGI in assay [7], in assay [8] and in assay [9] was > 100 µM each time.
Take `COc1ccc2c(C3=C(c4cn(C)c5ccccc45)C(=O)NC3=O)cn(C)c2c1`: the GI50 in [1] was 0.254 µM; in assay [3], 0.122 µM; in assay [4], 0.098 µM; in assay [5] it was 0.24 µM; in [6], 0.143 µM; in assay [7], 0.0982 µM. The GI50 was 0.15 µM in assay [8] and 0.597 µM in assay [9]. The TGI is > 25 µM in [1]; > 25 µM in [3]; > 14 µM in assay [4]; > 24 µM in assay [5]; > 25 µM in assay [6]; > 25 µM in [7]. Also, the TGI in assay [8] is > 25 µM; in assay [9] it was > 9.97 µM.
Consider `COc1ccc2c(c1)/C(=C/c1c(C)nc3sc(C)nn13)C(=O)N2`, for which the GI50 in assay [1] was 6.53 µM; in assay [2], 8.36 µM; in assay [3], 4.35 µM; in assay [4], 0.451 µM; in assay [5] it was 2.64 µM; in assay [6], 3.33 µM. Moreover, the GI50 is 1.09 µM in assay [7], 6.38 µM in assay [8] and 1.29 µM in assay [9]. Besides, the TGI is > 100 µM in assay [1]; > 100 µM in assay [2]; 61.9 µM in assay [3]; > 100 µM in [4]; > 100 µM in assay [5]; > 65.5 µM in assay [6]. For the same compound, the TGI was > 32.6 µM in assay [7], > 100 µM in [8] and 4.63 µM in assay [9].
As for `CC1(C)CCc2c(c3c(c4c(=O)c(O)c(-c5ccc(O)cc5)oc24)OC(C)(C)CC3)O1`, the GI50 in assay [1] is 48.9 µM; in assay [2], 34.5 µM; in assay [3], 24.8 µM; in assay [4] it was > 100 µM; in assay [5], 37.2 µM; in assay [6], 75.7 µM. Also, the GI50 in assay [7] is 48.7 µM; in assay [8] it was 36.3 µM; in [9] it was 67.2 µM. The TGI in [1] was > 100 µM; in assay [2], > 100 µM; in [3], 54.7 µM; in [4] it was > 100 µM; in assay [5] it was > 100 µM; in assay [6] it was > 100 µM. The TGI in assay [7], in assay [8] and in [9] was > 100 µM each time.
As to `CCC(CO)Nc1nc2ccc(Cl)cc2c2ccccc12` (stereo not given), the GI50 was 9.05 µM in assay [1]; 6.23 µM in [2]; 7.95 µM in assay [3]; 4.58 µM in [4]; 3.55 µM in assay [5]; 12.3 µM in [6]. The GI50 in [7] is 3.93 µM; in [8], 11.4 µM; in [9], 14.5 µM. Further, the TGI in assay [1] is 21.1 µM; in assay [2] it was 20.2 µM; in assay [3], 21 µM; in [4], 15.6 µM; in assay [5], 15.2 µM; in [6], 25.9 µM. The TGI in assay [7] stood at 14.8 µM; in [8], 29.3 µM; in assay [9], 28.4 µM.
